{"source": "patent US20250290117A1", "about": "“MOLECULAR PHENOTYPIC ANTIMICROBIAL SUSCEPTIBILITY TESTING” (priority 2024, published 2025)", "key": {"[1]": {"tested_on": "pathogen of the specimen", "experiment": "Traditional culture-based antimicrobial susceptibility test (comparison of Table 7)", "type": "cell-based", "settings": "E. coli isolate 1189", "procedure": "Table 7 illustrates the results of an example antimicrobial agent susceptibility test of the current application versus a traditional culture-based antimicrobial agent susceptibility test at multiple incubation timepoints, in accordance with one or more embodiments of the disclosure. These specimens were tested with direct PCR (e.g., no extraction DNA purification step prior to PCR). […] Result Reporting to Healthcare Providers. The results from the antimicrobial exposure are reported to the ordering healthcare provider. This information can be utilized by the healthcare provider when selecting an antimicrobial regimen for their individual patient based on these individual specimen results and patient specific factors. […] The current standard of care for antimicrobial susceptibility testing involves the growth, isolation, and exposure of pathogens to antimicrobials. This traditional culture and sensitivity process can take multiple days to obtain results, limiting the ability of healthcare providers to receive timely results to make actionable changes in patient care or management. Healthcare providers desire a method to obtain antimicrobial susceptibility results with quicker turn-around-time. This application discloses a molecular-based phenotypic antimicrobial susceptibility method which involves pathogen exposure to a panel of antimicrobial agents at their specified minimum inhibitory concentration breakpoints for sensitivity. This method allows for more timely antimicrobial susceptibility results."}, "[2]": {"tested_on": "pathogen of the specimen", "experiment": "Molecular phenotypic antimicrobial susceptibility test with direct PCR at various incubation timepoints (Table 7)", "type": "cell-based", "procedure": "Detection of Molecular Phenotypic Antimicrobial Susceptibility. Disclosed herein are the methods for the detection of phenotypic antimicrobial susceptibility via molecular methods. The present invention describes how a specimen 100 with a known microbial load is incubated and then exposed to a panel of antimicrobial agents to determine sensitivity (prevention of growth) or resistance (allowance of growth) to the specific antimicrobial agents tested utilizing molecular methods. Sample Collection. Specimens 100 are collected from patients using sterile collection processes that are employed in routine clinical care. Specimens are transported to the testing facility in boric acid preservative. […] The process for pathogen isolation includes steps of harvesting the pathogen (e.g., via centrifugation), isolating pathogen DNA via a DNA isolation and/or purification kit, and performing PCR on the pathogen DNA via PCR components (e.g., primers, enzymes, buffers) as would be known to the skilled artisan. […] This aliquot is used for antimicrobial susceptibility testing if indicated based on the pathogen detection results. […] Specimens 100 with lower pathogen loads could also be utilized in the antibiotic susceptibility phase of testing with or without a longer incubation period. […] Antimicrobial solutions are prepared at known concentrations. The specific antimicrobials and their concentrations are selected based on the pathogen of interest and the described antimicrobial resistance breakpoints for that specimen pathogen and antimicrobial combination. These antimicrobials have been selected based on those commonly utilized by healthcare providers in routine clinical care for the specific type of suspected infection. The number and types of antimicrobials utilized can be customized based on the infection source, pathogen detected, patient-specific factors such as allergies or other health conditions (e.g., chronic kidney disease or concurrent medication use), or healthcare provider preferences such as antimicrobial availability or cost. The antimicrobial solutions are prepared in liquid culture media (such as Muller Hinton Broth) to achieve the desired antimicrobial concentration and are then stored at −80° C. until use. For a given specimen, each antimicrobial is tested at a single or multiple antimicrobial concentration(s) which is its established breakpoints for sensitivity. The antimicrobial solutions are prepared and plated out for each specific pathogen. […] This allows for evaluation of pathogen load when no antimicrobial is present. Specimen Exposure to Antimicrobial Agents. The 1 mL aliquot of the specimen 100 previously mixed with culture media and incubated is obtained. Using optical density measurements as a guide, the specimen 100 is diluted to 0.5 McFarland. […] Antimicrobial exposure plates are typically placed into an incubator for 12-16 hours. […] Nucleic Acid Amplification of Antimicrobial Agent Exposed Pathogens. The antimicrobial exposure plate is removed after the period of incubation. The specimen then undergoes a purification or lysis step. For example, the specimen may undergo a purification step (e.g., magnetic bead-based or other separation protocol to isolate genetic material). In another example, the specimen may undergo a cell lysis step. For example, buffer (e.g., lysis buffer) may be added and incubated in the thermal cycler for preparation for direct PCR. Next, the specimen may undergo a polymerase chain reaction (PCR) testing protocol, whereby a semi-quantitative PCR method is utilized. This may be completed either with or without a specific extraction protocol step. The pathogens can be individually targeted and detected, or a universal genetic sequence can be utilized to detect the antimicrobial susceptibility of the specimen as a whole. The control wells are utilized as a threshold for determining antimicrobial sensitivity or resistance. […] Antimicrobial Susceptibility Result Interpretation."}}}
{"substance": "Amoxicillin/Clavulanate", "values": [{"measurement": "Traditional Culture Result", "setting": "[1]", "result": "Resistant"}, {"measurement": "Molecular Antimicrobial Susceptibility Result", "setting": "[2]; E. coli isolate 1189, antibiotic incubation time 4 hours", "result": "Resistant"}, {"measurement": "Ct at Sensitive Breakpoint", "setting": "[2]; E. coli isolate 1189, antibiotic incubation time 4 hours, control average Ct […]", "result": 16.799}, {"measurement": "Molecular Antimicrobial Susceptibility Result", "setting": "[2]; E. coli isolate 1189, antibiotic incubation time 6 hours", "result": "Resistant"}, {"measurement": "Ct at Sensitive Breakpoint", "setting": "[2]; E. coli isolate 1189, antibiotic incubation time 6 hours, control average Ct 16.992", "result": 17.105}, {"measurement": "Molecular Antimicrobial Susceptibility Result", "setting": "[2]; E. coli isolate 1189, antibiotic incubation time 8 hours", "result": "Resistant"}, {"measurement": "Ct at Sensitive Breakpoint", "setting": "[2]; E. coli isolate 1189, antibiotic incubation time 8 hours, control average Ct […]", "result": 17.430}, {"measurement": "Molecular Antimicrobial Susceptibility Result", "setting": "[2]; E. coli isolate 1189, antibiotic incubation time 10 hours", "result": "Resistant"}, {"measurement": "Ct at Sensitive Breakpoint", "setting": "[2]; E. coli isolate 1189, antibiotic incubation time 10 hours, control average Ct 15.995", "result": 15.606}, {"measurement": "Molecular Antimicrobial Susceptibility Result", "setting": "[2]; E. coli isolate 1189, antibiotic incubation time 14 hours", "result": "Resistant"}, {"measurement": "Ct at Sensitive Breakpoint", "setting": "[2]; E. coli isolate 1189, antibiotic incubation time 14 hours, control average Ct 15.826", "result": 14.226}, {"measurement": "Molecular Antimicrobial Susceptibility Result", "setting": "[2]; E. coli isolate 1189, antibiotic incubation time 16 hours", "result": "Resistant"}, {"measurement": "Ct at Sensitive Breakpoint", "setting": "[2]; E. coli isolate 1189, antibiotic incubation time 16 hours, control average Ct 14.880", "result": 14.825}]}
